Source: ChEMBL document CHEMBL5344465, “Innovations in Pharmacology: Enhancing Bioavailability and Efficacy through Novel Compositions” (ACS Med Chem Lett, 2024)
Calls of active or inactive are those of the source.

Experiments:
Format in all cases: functional, cell-based
[1] = tested on: A 172; assay: Neuroprotective activity against human A-172 cells assessed as effect on BDNF level
[2] = tested on: A 172; assay: Neuroprotective activity against human A-172 cells assessed as effect on GABA level
[3] = tested on: Small intestinal epithelial cell; assay: Antiinflammatory activity against TNFalpha/INFgamma induced human small intestinal epithelial cells assessed as reduction in IL-6 level
[4] = tested on: Small intestinal epithelial cell; assay: Antiinflammatory activity against TNFalpha/INFgamma induced human small intestinal epithelial cells assessed as reduction in COX-2 level

Measured: Activity

CN(C)CCc1c[nH]c2cccc(OP(=O)(O)O)c12
active: all assays above

C=CCc1ccc(O)c(OC)c1
active: all assays above
